Measured values from ChEMBL document CHEMBL1811807, “Evaluation of influence of Ap4A analogues on Fhit-positive HEK293T cells; cytotoxicity and ability to induce apoptosis” (Bioorg Med Chem, 2011).
pIC50, pKi: −log10 of the molar value. Calls of active or inactive are those of the source. No cut-off for these calls is given here.

Columns and labels:
[1] = Stability in medium collected from human HEK293T cells assessed as intact compound level at 1 mM incubated up to 48 hrs at 37 degC; assay type: ADME, cell-based, HEK-293T; conditions: read-out: Stability
[2] = Stability in medium collected from human HEK293T cells assessed as compound degradation level at 1 mM incubated up to 48 hrs at 37 degC; assay type: ADME, cell-based, HEK-293T; conditions: read-out: Activity
[3] = Stability in HEK293T cellular extract assessed as compound degradation level at 1 mM incubated after 48 hrs at 37 degC; assay type: ADME, HEK-293T; conditions: human, read-out: Activity
[4] = Drug uptake in Fhit-positive HEK293T cells Vesicular structures compartment at 7.5 uM after 24 hrs using fluorescein labeled compound; assay type: ADME, cell-based; conditions: human, hek-293t
[5] = Drug uptake in Fhit-positive HEK293T cells at 7.5 uM after 24 hrs using fluorescein labeled compound; assay type: ADME, cell-based; conditions: human, hek-293t
[6] = Drug uptake in Fhit-positive HEK293T cells cytoplasmic compartment at 7.5 uM after 24 hrs using fluorescein labeled compound; assay type: ADME, cell-based; conditions: human, hek-293t
[7] = target: Bis(5'-adenosyl)-triphosphatase (Homo sapiens, UniProt P49789); assay: Inhibition of Fragile histidine triad protein hydrolytic activity
Chain of Bis(5'-adenosyl)-triphosphatase (P49789 whole entry): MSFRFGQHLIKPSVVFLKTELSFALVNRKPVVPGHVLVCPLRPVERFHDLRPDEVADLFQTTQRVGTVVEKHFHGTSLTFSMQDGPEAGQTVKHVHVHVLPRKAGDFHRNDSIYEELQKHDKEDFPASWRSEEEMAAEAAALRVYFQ

HEK-293T [8] = assay: Cytotoxicity in Fhit-positive HEK293T cells after 72 hrs bu MTT assay; assay type: functional, cell-based; conditions: Homo sapiens
HEK-293T [9] = assay: Induction of apoptosis in Fhit-positive HEK293T cells at 5 uM after 48 hrs by Annexin-V assay (reference value: 3.9 +/- 0.95%); assay type: functional, Homo sapiens
HEK-293T [10] = assay: Induction of apoptosis in Fhit-positive HEK293T cells assessed as caspase-3 activation at 5 to 10 uM after 18 hrs by fluorescent assay; assay type: functional, cell-based; conditions: Homo sapiens
HeLa = assay: Cytotoxicity in Fhit-negative human HeLa cells after 72 hrs bu MTT assay; assay type: functional, cell-based
HEK-293T [11] = assay: Induction of apoptosis in Fhit-positive HEK293T cells assessed as caspase-9 activation at 5 uM after 18 hrs by luminescent assay; assay type: functional, Homo sapiens
HEK-293T [12] = assay: Induction of apoptosis in Fhit-positive HEK293T cells assessed as caspase-8 activation at 5 uM in presence of Fhit-specific siRNA after 18 hrs by fluorescent assay; assay type: functional, cell-based; conditions: Homo sapiens
HEK-293T [13] = assay: Induction of apoptosis in Fhit-positive HEK293T cells assessed as caspase-8 activation at 5 uM after 18 hrs by luminescent assay; assay type: functional, Homo sapiens
HEK-293T [14] = assay: Induction of apoptosis in Fhit-positive HEK293T cells assessed as caspase-3 activation at 5 uM after 18 hrs by fluorescent assay; assay type: functional, Homo sapiens
HEK-293T [15] = assay: Induction of apoptosis in Fhit-positive HEK293T cells assessed as caspase-3 activation at 0.5 to 5 uM after 18 hrs by fluorescent assay; assay type: functional, Homo sapiens
HL-60 = assay: Cytotoxicity in human HL60 cells after 72 hrs bu MTT assay; assay type: functional, cell-based; conditions: HL-60, 72 h
HEK-293T [16] = assay: Induction of apoptosis in Fhit-positive HEK293T cells at 5 uM after 24 hrs by Annexin-V assay (reference value: 3.9 +/- 0.95%); assay type: functional, Homo sapiens
[17] = Stability in human HEK293T cellular extract assessed as intact compound level at 1 mM incubated after 48 hrs at 37 degC; assay type: ADME, cell-based, HEK-293T; conditions: read-out: Stability
HEK-293T [18] = assay: Induction of apoptosis in Fhit-positive HEK293T cells assessed as caspase-3 activation at 0.5 to 1 uM after 18 hrs by fluorescent assay; assay type: functional, Homo sapiens
HEK-293T [19] = assay: Induction of apoptosis in Fhit-positive HEK293T cells assessed as caspase-3 activation at 5 uM in presence of Fhit-specific siRNA after 18 hrs by fluorescent assay; assay type: functional, cell-based; conditions: Homo sapiens
A549 = assay: Cytotoxicity in Fhit-negative human A549 cells after 72 hrs bu MTT assay; assay type: functional, cell-based; conditions: A549, 72 h
HEK-293T [20] = assay: Induction of apoptosis in Fhit-positive HEK293T cells at 20 uM by Annexin-V assay (reference value: 3.9 +/- 0.95%); assay type: functional, Homo sapiens

Nc1ncnc2c1ncn2[C@@H]1O[C@H](COP(=O)(O)OP(=O)(O)OP(=O)(O)OC[C@H]2O[C@@H](n3cnc4c(N)ncnc43)[C@H](O)[C@@H]2O)[C@@H](O)[C@H]1O
remaining at 48 h, 1000 µM [1]: 95%
degraded at 48 h, 1000 µM [2]: 95%
metabolised at 48 h, 1000 µM [3]: 88.7%

Nc1ncnc2c1ncn2[C@@H]1O[C@H](COP(=O)(S)OCC(O)COP(=O)(S)OCCCCCCNC(=O)c2ccc3c(c2)C2(OC3=O)c3ccc(O)cc3Oc3cc(O)ccc32)[C@@H](O)[C@H]1O (some centres undefined)
Drug uptake [4]: Active
Drug uptake [5]: Active
Drug uptake [6]: Active

Nc1ncnc2c1ncn2[C@@H]1O[C@H](COP(=O)(S)OCC(COP(=O)(S)OC[C@H]2O[C@@H](n3cnc4c(N)ncnc43)[C@H](O)[C@@H]2O)(COP(=O)(S)OC[C@H]2O[C@@H](n3cnc4c(N)ncnc43)[C@H](O)[C@@H]2O)COP(=O)(S)OC[C@H]2O[C@@H](n3cnc4c(N)ncnc43)[C@H](O)[C@@H]2O)[C@@H](O)[C@H]1O (mixture of isomers)
pKi [7]: 7.46
remaining at 48 h, 1000 µM [1]: 97%
pIC50 (HEK-293T [8]): < 4.10

Nc1ncnc2c1ncn2[C@@H]1O[C@H](COP(=O)(S)OCC(COP(=O)(S)OC[C@H]2O[C@@H](n3cnc4c(N)ncnc43)[C@H](O)[C@@H]2O)OP(=O)(O)S)[C@@H](O)[C@H]1O (mixture of isomers)
pKi [7]: 7.46
remaining at 48 h, 1000 µM [1]: 97%
pIC50 (HEK-293T [8]): < 4.10

Nc1ncnc2c1ncn2[C@@H]1O[C@H](COP(=O)(O)OP(=O)(O)OP(=O)(O)OP(=O)(O)OC[C@H]2O[C@@H](n3cnc4c(N)ncnc43)[C@H](O)[C@@H]2O)[C@@H](O)[C@H]1O [DIADENOSINE TETRAPHOSPHATE]
remaining at 48 h, 1000 µM [1]: 95%
degraded at 48 h, 1000 µM [2]: 95%
metabolised at 48 h, 1000 µM [3]: 92.8%

Nc1ncnc2c1ncn2[C@@H]1O[C@H](COP(=O)(S)OCC(COP(=O)(S)OC[C@H]2O[C@@H](n3cnc4c(N)ncnc43)[C@H](O)[C@@H]2O)OP(=O)(S)OC[C@H]2O[C@@H](n3cnc4c(N)ncnc43)[C@H](O)[C@@H]2O)[C@@H](O)[C@H]1O (mixture of isomers)
pKi [7]: 7.46
remaining at 48 h, 1000 µM [1]: 97%
pIC50 (HEK-293T [8]): < 4.10

Nc1ncnc2c1ncn2[C@@H]1O[C@H](COP(=O)(S)OCC(COP(=O)(O)S)(COP(=O)(S)OC[C@H]2O[C@@H](n3cnc4c(N)ncnc43)[C@H](O)[C@@H]2O)COP(=O)(S)OC[C@H]2O[C@@H](n3cnc4c(N)ncnc43)[C@H](O)[C@@H]2O)[C@@H](O)[C@H]1O (mixture of isomers)
pKi [7]: 7.46
remaining at 48 h, 1000 µM [1]: 97%
pIC50 (HEK-293T [8]): < 4.10

Nc1ncnc2c1ncn2[C@@H]1O[C@H](COP(=O)(S)OCC(O)COP(=O)(S)OC[C@H]2O[C@@H](n3cnc4c(N)ncnc43)[C@H](O)[C@@H]2O)[C@@H](O)[C@H]1O (mixture of isomers)
Activity (HEK-293T [9]): 14.24%
Activity (HEK-293T [10]): inactive
pIC50 (HeLa): < 4.10
pKi [7]: 7.46
Activity (HEK-293T [11]): 21%
Activity (HEK-293T [12]): inactive
Activity (HEK-293T [13]): 23%
Activity (HEK-293T [14]): 27%
Activity (HEK-293T [15]): 17%
pIC50 (HL-60): 5.05
remaining at 48 h, 1000 µM [1]: 97%
Activity (HEK-293T [16]): 10.5%
remaining at 48 h, 1000 µM [17]: 90%
Activity (HEK-293T [18]): 10%
pIC50 (HEK-293T [8]): 4.76
Activity (HEK-293T [19]): inactive
pIC50 (A549): < 4.10
Activity (HEK-293T [20]): 12.27%
